Measured values published in BindingDB's records for patent US20250145642 (Kineta, 2025).

Molecular target: T1, 1-phosphatidylinositol 3-phosphate 5-kinase [S696N,L932S,Q995L,T998S,S1033A,Q1183K] (Homo sapiens, UniProt Q9Y2I7, L932S/Q1183K/Q995L/S1033A/S696N/T998S)
T1 construct: gene PIKFYVE
Test: PIKfyve Biochemical Assay
Procedure: The biochemical PIKfyve inhibition assays were run by Carna Biosciences according to proprietary methodology based on the Promega ADP-Glo™ Kinase assay. […] GST-PIKFYVE was purified by using glutathione sepharose chromatography and used in an ADP-Glo™ Kinase assay (Promega). Reactions were set up by adding the test compound solution, substrate solution, ATP solution and kinase solution, each at 4× final concentrations. Reactions were prepared with assay buffer (50 mM MOPS, 1 mM DTT, pH7.2), mixed, and incubated in black 384 well polystyrene plates for 1 hour at room temperature. ADP-Glo™ reagent was then added for 40 minutes, followed by kinase detection reagent for an additional 40 minutes. The kinase activity was evaluated by detecting relative light units on a luminescence plate reader. Samples were run in duplicate from 10 μM to 3 nM. […] IC50 values were calculated from concentration vs % inhibition curves by fitting to a four-parameter logistic curve.

T1 sequence (Q9Y2I7 2-2098 S696N/L932S/Q995L/T998S/S1033A/Q1183K limits assumed): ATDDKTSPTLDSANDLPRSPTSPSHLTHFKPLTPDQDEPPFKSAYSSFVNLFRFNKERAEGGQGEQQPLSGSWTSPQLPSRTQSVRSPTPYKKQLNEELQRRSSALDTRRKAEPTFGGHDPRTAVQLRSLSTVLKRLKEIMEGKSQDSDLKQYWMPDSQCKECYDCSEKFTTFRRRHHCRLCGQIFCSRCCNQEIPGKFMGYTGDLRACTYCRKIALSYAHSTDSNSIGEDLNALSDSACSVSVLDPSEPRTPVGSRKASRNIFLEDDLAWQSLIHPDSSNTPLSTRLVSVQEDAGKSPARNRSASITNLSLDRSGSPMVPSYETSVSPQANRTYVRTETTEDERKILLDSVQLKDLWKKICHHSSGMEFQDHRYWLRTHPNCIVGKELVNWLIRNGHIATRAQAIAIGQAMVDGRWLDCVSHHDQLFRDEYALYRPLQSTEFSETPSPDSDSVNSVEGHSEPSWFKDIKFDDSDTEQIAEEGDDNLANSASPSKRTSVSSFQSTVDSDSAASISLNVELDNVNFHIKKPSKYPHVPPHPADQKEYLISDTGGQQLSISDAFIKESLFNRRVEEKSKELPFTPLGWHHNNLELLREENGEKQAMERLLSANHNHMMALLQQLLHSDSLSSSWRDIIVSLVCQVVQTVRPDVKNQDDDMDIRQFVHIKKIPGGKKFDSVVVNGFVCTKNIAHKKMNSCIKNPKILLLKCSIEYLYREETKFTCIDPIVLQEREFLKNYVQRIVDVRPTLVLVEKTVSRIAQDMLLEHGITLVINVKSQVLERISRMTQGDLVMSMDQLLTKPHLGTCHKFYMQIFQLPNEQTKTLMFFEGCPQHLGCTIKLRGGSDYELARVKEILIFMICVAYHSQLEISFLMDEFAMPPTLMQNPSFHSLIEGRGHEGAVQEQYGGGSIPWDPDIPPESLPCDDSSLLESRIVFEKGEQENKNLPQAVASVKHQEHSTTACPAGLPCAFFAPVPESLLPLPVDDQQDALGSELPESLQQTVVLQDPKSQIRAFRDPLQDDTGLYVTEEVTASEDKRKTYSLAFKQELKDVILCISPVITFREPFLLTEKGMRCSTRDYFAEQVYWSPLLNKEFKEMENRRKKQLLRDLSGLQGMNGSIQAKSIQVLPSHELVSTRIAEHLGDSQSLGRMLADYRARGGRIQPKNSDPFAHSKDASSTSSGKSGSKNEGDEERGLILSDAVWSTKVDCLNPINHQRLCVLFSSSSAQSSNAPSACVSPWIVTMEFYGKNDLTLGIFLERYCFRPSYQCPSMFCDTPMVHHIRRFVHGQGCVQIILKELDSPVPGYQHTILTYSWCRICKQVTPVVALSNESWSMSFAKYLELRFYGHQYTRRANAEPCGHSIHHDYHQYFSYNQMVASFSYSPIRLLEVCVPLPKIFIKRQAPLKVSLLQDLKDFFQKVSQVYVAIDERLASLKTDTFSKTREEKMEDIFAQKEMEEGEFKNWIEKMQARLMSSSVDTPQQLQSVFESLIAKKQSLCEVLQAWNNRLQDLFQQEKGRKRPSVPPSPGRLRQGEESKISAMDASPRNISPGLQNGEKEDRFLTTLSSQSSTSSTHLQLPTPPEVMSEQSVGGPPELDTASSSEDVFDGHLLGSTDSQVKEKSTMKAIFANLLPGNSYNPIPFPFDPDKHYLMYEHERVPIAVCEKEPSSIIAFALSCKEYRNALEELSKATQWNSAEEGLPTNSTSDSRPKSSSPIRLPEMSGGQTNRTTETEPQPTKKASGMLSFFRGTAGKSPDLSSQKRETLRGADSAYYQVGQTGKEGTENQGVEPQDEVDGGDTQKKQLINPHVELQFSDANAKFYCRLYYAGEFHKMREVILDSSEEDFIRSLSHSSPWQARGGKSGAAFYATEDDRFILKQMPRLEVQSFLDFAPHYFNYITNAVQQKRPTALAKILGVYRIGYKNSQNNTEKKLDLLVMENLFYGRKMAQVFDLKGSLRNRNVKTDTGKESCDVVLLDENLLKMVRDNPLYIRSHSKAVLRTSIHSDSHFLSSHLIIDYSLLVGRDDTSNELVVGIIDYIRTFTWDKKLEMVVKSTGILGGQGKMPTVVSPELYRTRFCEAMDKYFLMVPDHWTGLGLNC

`c1ccc(-c2c[nH]c3c(-c4ccncc4)nc(N4CCOCC4)nc23)cc1` [US20250145642, Compound 135] showed an IC50 of under 10 nM.
